This is an account of results in US20090162351A1, “Transdiscal administration of inhibitors of p38 MAP kinase” (DePuy Spine, Inc., priority 2007, published 2009).

Broadly, the inhibition is the percentage by which the read-out fell short of the control. Higher therefore signals strong suppression.

Common to all, as to assay type: cell-based
Assay [1] has as its system NO production in injured bovine cartilage explants. Description: Drop tower model: NO production in injured cartilage explants. To be noted: Bos taurus; at 10 μM; injured cartilage explants. As to the method:
(§1) In the second method, the explants were cultured at 37° C., 5% CO2 either in stimulated or non-stimulated conditioned medium as described above or in defined medium containing DMEM supplemented with 1% FCS, 1× insulin-transferrin-sodium selenite media supplement and Antibiotics-Antimycotics in the presence or absence of a cocktail of cytokines containing 10 ng/ml of IL-1β, 100 ng/ml of TNFα and 5 ng/ml of IFN-γ. The compounds were solubilized in H2O, Ethanol or DMSO (10^−2 M) according to suppliers' instructions and further diluted with either conditioned medium stimulated with or without LPS to the required concentrations. DMSO concentrations in the culture media never exceeded 1%. This concentration of DMSO has no effect on cartilage proteoglycan metabolism in response to cytokines. The injured and noninjured cartilage explants were treated with compound-containing medium for three to five days. The specimens were first treated with compounds at desired concentrations at 37° C. for one hour and then incubated for three to five days in the absence or presence of the cocktail of cytokines. At the end of the incubation, media and cartilage samples were harvested and frozen for further analysis.
Nitrate/Nitrite was measured using the Griess reaction (Green L. C. et al., “Analysis of Nitrate, Nitrite, and [15N]nitrate in Biological Fluids,” Anal. Biochem. 126: 131-138 (1982)) with a Nitrate/Nitrite Colorimetric Assay Kit (Cayman Chemicals), as described in Example III above.

Assay [2] has as its system PGE2 synthesis in injured bovine cartilage explants. Description: Drop tower model: PGE2 synthesis in injured cartilage explants. As to the method: as §1
PGE2 was measured with STAT-Prostaglandin E2 EIA ELISA kit (Cayman Biochemicals), as described in Example III above. The antibody-PGE2 complex binds to a goat polyclonal anti-mouse IgG that has been previously attached to the well. After washing to remove any unbound reagents, para-nitrophenyl phosphate (pNPP) was added to the well. The product of this enzymatic reaction absorbs strongly at 412 nm. Because of the large range in response to IL-1β and other cytokines, PGE2 values were converted to log scale prior to doing t-tests.

In assay [3] the test system is injured bovine articular cartilage explants in inflammatory medium. Kind of assay: Drop tower model: GAG degradation in injured cartilage explants. To be noted: for inhibition at 10 µM: Bos taurus, injured cartilage explants. An excerpt: In order to assess cartilage breakdown by inflammatory mediators and the effect of antagonists on those mediators, a cartilage impact model (the “drop tower model”) was established using a drop tower device to apply a peak compressive stress to a cartilage sample of about 20-30 MPa over an area of about 11-15 mm^2. Advantages of this model included its clinical relevance due to its potential to mimic several key parameters of osteoarthritis such as inflammatory cell mediators (by co-culturing with inflammatory cells), and induction of trauma to create the cartilage damage.
In the “drop tower design model” cartilage explants were first injured and then cultured in inflammatory medium to mimic the progression of joint impact trauma linked to cartilage degeneration and osteoarthritis. The approach of the model is to artificially produce cellular damage without gross structural alterations, and to determine how the cells respond to such an insult over the ensuing days when treated with or without potential therapeutic agents.
The device comprises a vertical rail that guides a sliding weight from 0.1 kg to 3 kg directly onto a force transducer which is situated at the bottom of the device. A sphere-shaped 2 mm indenter resting on a specimen is located at the bottom of the vertical rail. The indenter is held by a stop screw. The specimen is rigidly attached to a tissue holder underneath the indenter, to avoid side movements, the specimen is rigidly attached to the tissue holder. In this manner, the force transducer transduces a force indirectly onto the specimen. Adjusting the weight of a mass and height from which the mass drops varies the magnitude of the intended impact. For example, a weight mass (e.g., […]) held by a weight holder can be released from a height of e.g., 36 cm and dropped onto the force transducer.
Samples for compound evaluation were tested using either of two different methods to induce inflammatory conditions. One method utilized media conditioned from peripheral blood mononuclear cells (PBMCs) stimulated with LPS (“+LPS”) or non-inflammatory media without LPS (“−LPS”). Another method utilized the absence or presence of a cocktail of cytokines.
In the first method, bovine or human PBMCs were freshly prepared using Ficoll gradient by Lampire Biological Laboratories, Inc. PBMCs in RPMI w/10% FCS at delivery were spun down at 1500 rpm for twenty minutes and the cell pellet was washed twice with 1×PBS to wash off the residual Ficoll. The cells were then resuspended at a density of 1×10^6/ml in RPMI supplemented with 10% FCS, 1× Antibiotics-Antimycotics. The suspension was divided into two aliquots. One aliquot was stimulated with 10 μg/ml of LPS and the other was not stimulated. Both aliquots were then incubated at 37° C., 5% CO2 for twenty-four to seventy-two hours. The conditioned media with or without LPS stimulation are collected, aliquoted, and stored in −80° C. for a maximum of three months. Each conditioned medium was assessed for levels of pro-inflammatory cytokines to ensure their secretion from PBMC. A representative cytokine, IL-6, was assayed by ELISA using a Human IL-6 Quantikine kit and it was shown that the LPS-stimulated medium had at least 10 ng/ml of IL-6, while IL-6 was undetectable in the unstimulated medium.
In the second method, the explants were cultured at 37° C., 5% CO2 either in stimulated or non-stimulated conditioned medium as described above or in defined medium containing DMEM supplemented with 1% FCS, 1× insulin-transferrin-sodium selenite media supplement and Antibiotics-Antimycotics in the presence or absence of a cocktail of cytokines containing 10 ng/ml of IL-1β, 100 ng/ml of TNFα and 5 ng/ml of IFN-γ. The compounds were solubilized in H2O, Ethanol or DMSO (10^−2 M) according to suppliers' instructions and further diluted with either conditioned medium stimulated with or without LPS to the required concentrations. DMSO concentrations in the culture media never exceeded 1%. […]

Assay [4] deals with IL-1β-stimulated PGE2 synthesis in bovine chondrocyte pellets / ARC tissues. Kind of assay: Chondrocyte pellet / ARC culture model: Prostaglandin E2 assay. To be noted: Table 3B. The text has this:
(§2) Calf articular cartilage was obtained from the knee joints of eight to twelve month old animals and was processed within twenty-four hours after sacrifice. After removal of muscle and ligament, the cartilage was kept moist using phosphate buffer solution (PBS) to prevent tissue dehydration, and was aseptically peeled off from subchondral bone with a scalpel, and the cartilage pieces were further minced into smaller pieces (˜0.3-0.5×˜0.2-0.5 cm cubes). […] Chondrocytes were then enzymatically isolated from the tissue by incubation for overnight at 37° C. with gentle agitation in 0.2% collagenase in Dulbecco's modified eagle media (DMEM). After removal of tissue debris by filtration through cell strainer and the residual collagenase by 3× wash in PBS, cells were finally resuspended at a density of 2.5×10^6 cells/ml in chondrocyte medium. A 1 ml aliquot of the cell suspension was dispensed into either a 15 ml Falcon centrifuge tube or a 96 deep-well plate and centrifuged at 2000×g for five minutes. The chondrocyte pellets were incubated at 37° C. in a humidified atmosphere of 5% CO2 for two to three weeks with a medium change every other day.
(§3) As an alternative to using calf articular cartilage, a commercial Aliginate Recovered Chondrocytes (ARC) system was also used (Articular Engineering, LLC (Northbrook, Ill.)). Use of the commercial system cut down on labor and time in producing chondrocyte pellet. This system produced cartilaginous tissue in vitro using bovine chondrocytes. The first step consisted of culturing chondrocytes in alginate under conditions optimal for the formation of a cell-associated matrix (CM). The second step allowed these cells with their CM, after recovery, to rapidly form and become integrated into a solid mass of cartilage on a porous insert within two weeks.
(§4) Chondrocyte pellets were washed once with 1 ml of Chondrocyte Stimulation Medium and equilibrated in the same medium at room temperature for fifteen to thirty minutes. Compounds were dissolved in H2O, Ethanol or dimethyl sulfoxide (DMSO) (10^−2 M) according to suppliers' instructions and further diluted with Chondrocyte Stimulation Medium to the required concentrations. DMSO concentrations in the culture media should not exceed 1%; this concentration of DMSO has no effect on cartilage proteoglycan metabolism in response to cytokines.
(§5) The pellets were first treated with compounds at desired concentrations at 37° C. for one hour and then incubated for three to five days in the absence or presence of 10 ng/ml of IL-1β. At the end of the incubation, media and pellets were harvested and frozen for further analysis. Pellets were also fixed as needed in 4% (w/v) paraformaldehyde in PBS for histology analysis.
Prostaglandin E2 (PGE2) was measured with a STAT-Prostaglandin E2 EIA ELISA kit (Cayman Biochemicals). This assay is based on the competition between PGE2 from 50 μl samples and a PGE2-alkaline phosphatase conjugate for a limited amount of PGE2 monoclonal antibody in a reaction volume of 150 μl at room temperature for one hour. The antibody-PGE2 complex bound to a goat polyclonal anti-mouse IgG that had been previously attached to the well. After washing to remove any unbound reagents, para-nitrophenyl phosphate (pNPP) was added to the well. The product of this enzymatic reaction absorbs strongly at 412 nm. Because of the large range in response to IL-1β and other cytokines, PGE2 values were converted to log scale prior to doing t-tests.
To characterize the relative efficacies among different p38 MAP kinase inhibitors, dose-response curves were generated for both PGE2 and NO assays. […] After one hour of treatment, ARCs were stimulated with or without 7.5 ng/ml IL-1β and continued to incubate for five days before assay. The IL-1β-stimulated PGE2 synthesis or NO production was first calculated by subtraction of PGE2/NO levels in the absence of IL-1β from that in the presence of IL-1β. […]

Assay [5] concerns IL-1β-stimulated NO production in bovine chondrocyte pellets / ARC tissues. Kind of assay: Chondrocyte pellet / ARC culture model: total nitrite and nitrate assay. The settings on record: Table 3B.
Excerpt: as §2, §3, §4, §5
Nitrate/Nitrite levels were measured using the Griess reaction (Green L. C. et al., “Analysis of Nitrate, Nitrite, and [15N]nitrate in Biological Fluids,” Anal. Biochem. 126: 131-138 (1982)) with a Nitrate/Nitrite Colorimetric Assay Kit (Cayman Chemicals), the contents of which are incorporated herein by reference. The assay involved a simple two-step process. The first step involved conversion of nitrate in 50 μl of culture medium to nitrite utilizing nitrate reductase in a reaction volume of 100 μl at room temperature for two hours. The second step involved the addition of 50 μl of both Griess Reagent 1 and 2, which converted nitrite into a deep purple azo compound in ten minutes. Photometric measurement of the absorbance at 540 or 550 nm due to this azo chromophore accurately determined nitrite concentration. This assay kit cannot be used for RPMI (Roswell Park Memorial Institute) derived tissue culture medium due to interference with the colorimetric reaction.
To characterize the relative efficacies among different p38 MAP kinase inhibitors, dose-response curves were generated for both PGE2 and NO assays. […] After one hour of treatment, ARCs were stimulated with or without 7.5 ng/ml IL-1β and continued to incubate for five days before assay. […]

The subject of assay [6] is bovine chondrocyte pellets / ARC tissues stimulated with IL-1β. Description: Chondrocyte pellet / ARC culture model: GAG degradation assay. To be noted: Table 3B.
Excerpt: A chondrocyte pellet culture model was developed for in vitro high throughput screening of therapeutic compounds for inhibition of IL-1β-stimulated matrix degradation. The chondrocyte pellet culture model can be used to detect various potential therapeutic compounds effective in blocking different processes caused by IL-1β stimulation. For example, IL-1β stimulation results in increased glycosaminoglycan (GAG) degradation, prostaglandin E2 (PGE2) synthesis and total nitrite/nitrate production. Compounds with different mechanisms of action may inhibit the increase of one or two or all three of these parameters. For this reason, screening by, for example, measuring only GAG release would be limited to detection of a specific class of inhibitors and may not detect compounds with diversified mechanisms of function which may be involved in inhibition of the IL-1 stimulated inflammatory process. The development of the chondrocyte pellet culture assay system in a 96-well plate made possible large-scale screening of potential therapeutic compounds with different mechanisms of action.
as §2, §3
This tissue is rich in cells surrounded by a cell-associated matrix that is degraded rapidly when the cells are exposed to IL-1. ARC tissues in 3 mm punches at delivery were first dispensed into a 96 deep-well plate, one punch per well, for compound treatment. The subsequent procedures were the same as those used for the chondrocyte pellets.
as §4
The pellets were first treated with compounds at desired concentrations at 37° C. for one hour and then incubated for three to five days in the absence or presence of 10 ng/ml of IL-1β. […]

With `CNC(=O)[C@H](Cc1ccccc1)NC(=O)[C@H](CC(C)C)[C@H](CSc1cccs1)C(=O)NO` [Batimastat, reference compound], the inhibition at 10 µM in assay [1] and in assay [3] was 100% each time. The “PGE2 synthesis (in words)” value in assay [2] (10 μM, cocktail of cytokines (IL-1β, TNF-α, INF-γ), five days) is “did not inhibit”. The “Inhibition of PGE2 synthesis (in words)” value in assay [2] (Table 4) was “No effect”.

Take `C[C@H]1[C@H](C)CC[C@]2(C(=O)O[C@@H]3O[C@H](CO[C@@H]4O[C@H](CO)[C@@H](O[C@@H]5O[C@@H](C)[C@H](O)[C@@H](O)[C@H]5O)[C@H](O)[C@H]4O)[C@@H](O)[C@H](O)[C@H]3O)CC[C@]3(C)C(=CC[C@@H]4[C@@]5(C)C[C@@H](O)[C@H](O)[C@@](C)(CO)[C@@H]5[C@H](O)C[C@]43C)[C@H]12` [Madecassoside, reference compound]: in assay [4], the “PGE2 Inhibition, Pellet Assay (in words)” value was “No effect”. The “NO Inhibition, Pellet Assay (in words)” value in assay [5] is reported as “No effect”. Moreover, the “GAG Release, Pellet Assay (in words)” value in assay [6] is reported as “No effect”.

Consider `CN1C(C(=O)Nc2ccccn2)=C(O)c2ccccc2S1(=O)=O` [Proxicam, reference compound], for which the “Inhibition of GAG degradation (in words)” value in assay [3] (Table 4, injured cartilage explants, inflammatory conditions) is “No effect”. Also, the “GAG Release, Pellet Assay (in words)” value in assay [6] is reported as “No effect”.

Regarding `CC(C(=O)O)c1ccc(C(=O)c2ccccc2)s1` (centres unmarked) [Tiaprofenic Acid, reference compound], the inhibition at 10 µM in assay [3] was 70%. Further, in assay [6], the “GAG Release, Pellet Assay (in words)” value is recorded as “No effect”.

For `CC1(C)O[C@@H]2[C@@H](CO[C@@]3(COS(N)(=O)=O)OC(C)(C)O[C@@H]23)O1` [Topramax, reference compound], in assay [4], the “PGE2 Inhibition, Pellet Assay (in words)” value is on record as “No effect”. Also, the “NO Inhibition, Pellet Assay (in words)” value in assay [5] is listed as “No effect”. For the same compound, in assay [6], the “GAG Release, Pellet Assay (in words)” value was “No effect”.
